From a melting point compilation (Tetko et al.; mined from patent text by program, amines drawn as free bases though some values may be those of a salt)

Row | melting point [°C] | SMILES
1 | 150 | CC(c1cc(F)ccc1O)c1cc(Cl)cc(Cl)c1O (stereo not given)
2 | 211 to 213 | COC(=O)Nc1ccc(C(=O)OC)nc1
3 | 130 to 132 | COc1ccc2c(c1)C(=O)C(=Cc1nccs1)CO2
4 | 125 to 127 | CC(=O)OC1COc2ccc3ncccc3c2C1 (stereo not given)
5 | 149 to 150 | CC(=O)c1ccc(S)cc1OCC(=O)O
6 | 58 to 60 | CCC(C)NC(=O)c1ncc(C)cc1C(=O)OC (stereo not given)
7 | 194 to 195 | CC(=O)Nc1nc2c(Oc3cc(-c4ccc(C(F)(F)F)cc4NC(=O)OC(C)(C)C)ncn3)cccc2s1
8 | 111 to 113 | COC(=O)Cc1cccc(C(=O)c2ccc(O)cc2)c1
9 | 169 to 170 | CC(=O)C1CC2=C(CO1)C(=O)c1ccc(O)cc1C2=O (stereo not given)
10 | 162 to 165 | CC(C)OC(=O)N1CCC(c2nc3cc(-c4ccc(C(=O)NC5CC5)c(F)c4)ccc3o2)CC1
11 | 227 | Cc1ncc(Cn2c(NC3CCNCC3)nc3ccccc32)o1
12 | 209 to 210 | O=c1cc(N2CCCC(CO)C2)oc2c1ccc1ccccc12 (stereo not given)
13 | 128 to 129 | CC(=O)OC1CCCc2cnc3ccccc3c21 (stereo not given)
14 | 175 to 177 | CCc1cc(NC(=O)C(CSC(C)=O)Cc2ccccc2)cc(C(=O)O)c1 (stereo not given)
15 | 260 to 261 | CCOc1cc2c(c3c1[nH]c1ccc(O)cc13)C(=O)N(CCN(C)C)C2=O
16 | 120 to 127 | Cc1cc(Cl)ccc1N1CCC(=O)N(C)C1=O
17 | 34 to 36 | C=CCOc1ccc2oc(C(=O)OCC)cc2c1
18 | 175 to 177 | COC(=O)c1ccc(Cc2ccc(NC(C)=O)cc2)cn1

Row | melting point [°C] | SMILES
19 | 270 to 280 | O=C(CNS(=O)(=O)c1ccc2[nH]c(=O)c(=O)[nH]c2c1)OCc1ccccc1
20 | 123 to 124 | Cn1c(C(F)(F)F)ccc(-c2ccc(F)cc2F)c1=O
21 | 121 to 124 | CCCOc1ccc(S(=O)(=O)Cl)cc1C(=O)O
22 | 152 to 154 | CC(Oc1ccc(Oc2ncc(Cl)cc2N)cc1)C(=O)O (stereo not given)
23 | 255 | COc1ccc2cc(-c3ccc(O)cc3)[nH]c(=O)c2c1
24 | 258 to 260 | CCOC(=O)N1CCn2c(nc(-c3ccncc3)cc2=O)C(NC(=O)c2ccc3c(c2)CNCC3)C1 (racemic)
25 | 199 to 200 | CC(C)(C)OC(=O)C(C1NC(C(=O)O)C2(CCOCC2)S1)N1C(=O)c2ccccc2C1=O (stereo not given)
26 | 160 | O=C1Nc2ccc(I)cc2C1=NNC(=O)C1CCN(C(=O)c2ccccc2)CC1
27 | 79 | CCCOC(=O)c1sccc1S(N)(=O)=O
28 | 194 | N#Cc1ccc(CC2CCN(C(=O)C(=O)Nc3ccc4[nH]c(=O)oc4c3)CC2)cc1
29 | 234 | CC1(C)CC(=O)C2=C(C1)NC1=C(C(=O)CC(C)(C)C1)C2c1ccc(OC(F)(F)F)cc1
30 | 90 to 92 | CCc1cc2c(cc1CC)C(=O)C(Cl)=CC2=O
31 | 110 to 111 | CON(c1ccc(SC)cc1[N+](=O)[O-])S(=O)(=O)c1ccc(C)cc1
32 | 95 to 96 | O=C(O)CC(O)c1ccc(-c2ccc(Cl)c(Cl)c2)o1 (stereo not given)
33 | 88 to 89 | CCn1c(=O)cc(C2CCCCC2)c2cccnc21
34 | 220 to 233 | O=C1CNCc2[nH]c3ccccc3c21
35 | 160 to 162 | NC(=O)C(N)Cc1ccc([N+](=O)[O-])cc1 (stereo not given)
36 | 94 to 108 | Cc1ccc(S(=O)(=O)NC(=O)C2C(=O)CC(C)(C)CC2=O)cc1

The remaining lines, values behind:

Row | SMILES | melting point [°C]
37 | CC(C)N(Cc1nc(-c2ncn3c2CN(C)C(=O)c2ccccc2-3)no1)C(C)C | 117 to 119
38 | COc1ccc(N2CCN(c3c(C)c(C)c4c(c3C)C(c3ccccn3)C(C)(C)O4)CC2)cc1 (stereo not given) | 123 to 125
39 | Oc1ccc(OCCCCOc2ccc(O)cc2)cc1 | 202 to 204
40 | CN(C)C(=C(C#N)C#N)N(C)N=Cc1ccccc1 | 127 to 128
41 | N=C(NC(=O)c1cccc2ccccc12)N1CC(c2ccccc2)C(c2ccc(Cl)cc2)=N1 (stereo not given) | 206 to 207
42 | O=C(NC(=O)c1c(F)cccc1Cl)Nc1ccc(C(F)(F)F)c(F)c1 | 200
43 | CC(C)C(=O)NCC(=O)c1ccco1 | 78 to 80
44 | CC(C)c1cc(C(C)C)c(SSc2c(C(C)C)cc(C(C)C)cc2C(C)C)c(C(C)C)c1 | 93 to 94
45 | N#CN=C(Nc1cncc(N)c1)NC1(c2ccccc2)CCC1 | 213 to 214
46 | Oc1cccnc1CC1(O)CN2CCC1CC2 (stereo not given) | 270 to 272
47 | O=C(O)CCCCCN(C(=O)c1ccc(Cl)cc1Cl)c1ccccc1-c1ccccc1 | 112 to 113
48 | N#Cc1ccc(CCC(=O)C2CC2)cc1 | 76
49 | COCCNc1nccc(Oc2ccc(NC(=O)c3cc(F)cc(N4CCCCC4)c3)c3ccccc23)n1 | 87 to 88
50 | Cc1ccc(Cn2c(=O)c3c(Cl)cc(Cl)cc3n(Cc3ccccc3)c2=O)cc1C | 126 to 132
51 | CN1CCN(C(=S)C2(c3ccccn3)CCCS2)CC1 (stereo not given) | 124
52 | CCCCC(Cc1cccnc1)(C(=O)NO)S(=O)(=O)c1ccc(OC)cc1 (stereo not given) | 65
53 | Cn1cc(C(=O)Nc2ccccc2-c2cc(Cl)cc(Cl)c2)c(C(F)(F)F)n1 | 101 to 105
54 | CCCCCS(=O)(=O)NC(=O)/C=C/c1ccc(OCCOC)cc1Oc1ncc(Cl)cc1Cl | 119 to 120
55 | COc1cc2ncc(C#N)c(Nc3ccc(F)c(Cl)c3)c2cc1NC(=O)C=CCN(C)OC | 210 to 217
56 | O=S(=O)(N=CN1CCOCC1)c1nc(-c2ccccc2)ns1 | 185 to 187
57 | Cc1cccc(-c2[nH]c(C(C)C)nc2-c2cccc(-c3cccc(F)c3)c2)n1 | 140 to 142
58 | O=C(NCC(O)c1ccccc1)c1ccc2n1Cc1ccccc1N(C(=O)COc1ccc(Cl)cc1)C2 (stereo not given) | 157 to 158
59 | O=C(O)c1cccc(Cn2cc(C3c4ccccc4C=Cc4ccccc43)c(=S)[nH]c2=O)c1 | > 230

Row | SMILES | melting point [°C]
60 | CC1(CF)C(=O)N(c2ccc(C#N)c(C(F)(F)F)c2)C(=O)N1CC#N (stereo not given) | 175
61 | COc1cc2c(cc1C(F)(F)F)c(C(=O)Nc1cccnc1)cn2C | > 250
62 | CCOc1ccc(C(=O)CCC(=O)Nc2sc(-c3ccccc3)nc2-c2ccccc2)cc1 | 169 to 170
63 | CC(C)Cn1cccc1C(N)=S | 126 to 128
64 | CCCn1nc(-c2ccncc2)nc1-c1ccncc1 | 88 to 89
65 | COc1ccc(-c2ccn(C)c2-c2ccc(OC)cc2)cc1 | 126 to 127
66 | COc1ccc(-c2nsc3ccc([N+](=O)[O-])cc23)cc1 | 207
67 | COC(=O)c1ccc(SC(Cn2ccnc2)c2ccc(Cl)cc2Cl)cc1 (stereo not given) | 121 to 124
68 | CN1CCN(CC/C=C/c2ccc3ncc(C#N)c(Nc4ccc(Cl)cc4Cl)c3c2)CC1 | 97 to 98
69 | O=[N+]([O-])c1cc2c(Nc3ccc(F)c(Cl)c3)ncnc2cc1OCC1CC1 | 204
70 | CCOc1ccc2nc(SC(C)(C(=O)O)c3ccccc3)sc2c1 (stereo not given) | 152 to 153
71 | CC1(C)CCC(C)(C)c2cc(C#Cc3ccc(S(C)(=O)=O)cc3)ccc21 | 153 to 155
72 | COc1cc2c(c3c1OC(C)(C)C3)C(c1cccc(N3CCNS3(=O)=O)c1)=NC(C)(C)C2 | 145 to 147
73 | COc1cc(N)c(Cl)cc1C(=O)NC1CCN(CCCC(=O)N2C(C)CCCC2C)CC1OC (stereo not given) | 202
74 | CCOC(=O)c1c(C)c(C(=O)CC#N)n(C)c1C | 105
75 | COCCc1nc2c(N)nc3ccccc3c2n1CC(C)C | 168 to 170
76 | c1ccc(C(OC2CCN(CCCCCNc3ccc4ncnn4n3)CC2)c2ccccc2)cc1 | 96 to 98
77 | CNC(=O)Oc1cccc(NC(=O)CC(C)=O)c1 | 142
78 | COC(COc1ccc(C(=O)C(C)(C)O)cc1)OC | 52 to 53
79 | COc1cc2c(-c3cc4cccnc4[nH]3)cn(C)c2cc1O | 250
80 | CCCCOc1ccc(S(=O)(=O)C2(C(=O)NO)CCN(Cc3cccc(OC)c3)CC2)cc1 | 137
81 | Clc1ccc2cc(Br)sc2n1 | 116
82 | ClCSc1nc(Cl)c(Cl)nc1Cl | 68 to 70

Row | SMILES | melting point [°C]
83 | CC(C)(C)c1ccc(C(=O)Nc2cn3cc(-c4cccnc4)ccc3n2)cn1 | 272 to 274
84 | O=C(Nc1cccnc1)N1CCc2ccccc2CC1 | 144 to 146
85 | N#Cc1cnn(CCCl)c1N | 156
86 | O=C1CCc2c1sc1c2CCCC1 | 43 to 44
87 | COc1ccc(C(=O)Nc2ncc(Cl)cc2Cl)c2c1oc1ccccc12 | 302
88 | CCCN1CC=C(c2c(C)[nH]c3cc(OC)ccc23)CC1 | 90 to 95
89 | CC(C)(O)c1cc(O)cc(C(C)(C)O)c1 | 137 to 138
90 | CCCCCC(CC(=O)O)c1cc(C=O)c(OC)cc1OC (stereo not given) | 110 to 112
91 | O=C(O)C1CC(=O)N(Cc2ccccc2)C1c1ccccc1 (stereo not given) | 169 to 171
92 | OC1OC(Cn2cncn2)(c2ccc(Cl)cc2)c2ccccc21 (stereo not given) | 215 to 217
93 | Nc1c(Cl)ncnc1NCc1ccc(CO)o1 | 137
94 | CCCc1c(OCCCOc2ccc3ccc(OCC(=O)O)cc3c2C(C)=O)ccc(C(C)=O)c1O | 140 to 141
95 | COc1cc2nc(C)c(CO)nc2cc1OC | 176 to 177
96 | CCn1nc(-c2ncc(N)nc2-c2ccccc2)ccc1=O | 227 to 229
97 | CC(C)(C)c1ccc(C2C=C(c3ccccc3)NN2c2ccccc2)cc1 (stereo not given) | 150 to 153
98 | CC1=NC(=Cc2ccc(F)cc2)C(=O)O1 | 156
99 | CCCSc1nccn2c(=O)c(C(=O)OCC)cnc12 | 112
100 | Nc1cnc2c(c1)[nH]c(=O)n2-c1ccccc1F | 220 to 221
101 | O=C(CCc1ccc2ccccc2c1)c1cnc2sc3c(n12)CCCCC3 | 76 to 78
102 | O=S(=O)(O)CCCN1CCCc2ccccc21 | 233 to 237
103 | COc1ccccc1N1CCN(CCC2CN(C)C(=O)O2)CC1 (stereo not given) | 107 to 108
104 | CN(C)CCCOc1ccnc2cc([N+](=O)[O-])ccc12 | 146 to 149
105 | O=c1oc(OCc2ccccc2)c(Cl)c2ccccc12 | 92
